The results in this text go back to patent US20250144250A1, “PH-SENSITIVE FLUOROPHORES” (The General Hospital Corporation, priority 2022, published 2025).

A short description of data set [1]: Measurement of optophysical properties (absorbance, fluorescence emission, quantum yield, pH dependence). The conditions noted are these: for Abs λMax / Em λMax / QY (quantum yield) / ε (extinction coefficient): pH 7.4. Format: physicochemical. How it is done: Measurement of optophysical properties: Absorbance and fluorescence emission spectra of the series of NIR fluorophores were measured using fiber optic HR2000 absorbance (200-1100 nm) and USB2000FL fluorescence (350-1000 nm) spectrometers (Ocean Optics, Dunedin, FL). NIR excitation was provided by a 655 nm red laser pointer (Opcom Inc., Xiamen, China) set to 5 mW and coupled through a 300 μm core diameter, NA 0.22 fiber (Fiberguide Industries, Stirling, NJ). To determine the pH dependence of the fluorescence signal, optical measurements were performed at 37° C. in PBS, pH 4.0-7.4 or 100% FBS buffered with 50 mM HEPES, pH 4.0-7.4. The pH of the solutions was adjusted as appropriate with NaOH and HCl using a pH spear tester (Thermo Scientific). For fluorescence quantum yield (QY) measurements, indocyanine green (ICG) in DMSO (QY=13%) was used as a calibration standard to measure the fluorescence QY under conditions of matched absorbance at 765 nm. In silico calculations of the partition coefficient (LogP and LogD at pH 7.4), surface molecular charge, hydrophobicity, hydrogen bond acceptors/donors (HBA/HBD), the acid dissociation constant (pKa), and topological polar surface area (TPSA) were calculated using Marvin and JChem calculator plugins (ChemAxon, Budapest, Hungary). Theoretical calculations of HOMO and LUMO energy levels of fluorophores were performed based on density functional theory (DFT) with a 6-311 G basis set using Spartan 18 software (Wavefunction, Irvine, CA). […]

In the next data set the test system is ID8 cells. As to the kind of experiment: Subcellular localization (co-localization with MitoTracker, LysoTracker, NucBlue). Format: cell-based, murine. The conditions noted are these: 10 μM, 30 min incubation. How it is done:
FIG. 3 Subcellular localization of pH sensing NIR fluorophores: (a) Subcellular localization of each probe (10 μM) in ID8 cells was determined after 30 min of incubation at 37° C. Nuclei, mitochondria, and lysosomes were stained with NucBlue, MitoTracker Green, or LysoTracker Red, respectively. Representative fluorescence images of cells. Scale bar=20 μm. (b) Co-localization index of each probe with MitoTracker Green or LysoTracker Red. The index was calculated by dividing the area of overlap between pH probe and MitoTracker or LysoTracker by the total area of MitoTracker or LysoTracker, respectively. The co-localization index was determined in 5-6 photographic areas (70×92 μm^2 each) for each probe. *P<0.05 by two-way ANOVA followed by Tukey's multiple comparisons test. Error bars show means±s.d.
Live-cell labeling and in vitro imaging: Murine ovarian cancer cells (ID8 cells) were obtained from Dr. Wang's lab in the Vincent Center for Reproductive Biology at Massachusetts General Hospital (MGH). Cells were cultured and maintained in Dulbecco's modified Eagle's medium (DMEM) supplemented with 4% FBS (Gibco, Grand Island, NY), 1% insulin-transferrin-selenium (Sigma-Aldrich), and 1% penicillin-streptomycin (Gibco). Cells were plated in a T-75 culture flask until 70% confluency before dividing for the next passage. For fluorophore binding affinity, ID8 cells were incubated at a density of 20,000 cells/well in a 24-well plate in a humidified incubator at 37° C. under 5% CO2 in the air. Cells were then incubated at 37° C. for 30 min in the presence of 0.2 μM of PH03 or PH08 and phenol red-free Hank's balanced salt solution (HBSS) with or without 10% FBS. […] Image acquisition and analysis were performed using IPLab software (Scanalytics, Fairfax, VA), and the fluorescent intensity of each cell was measured using ImageJ (National Institutes of Health, Bethesda, MD). The outline of each cell was determined on a phase-contrast image to specify the region of interest (ROI) and superimposed on a fluorescence image for measurements. All NIR fluorescence images for each fluorophore were normalized identically for all conditions during an experiment. […]
Subcellular distribution of pH sensing NIR fluorophores: To investigate the fate of the NIR fluorophores after uptake by cells, we performed in vitro live-cell imaging and evaluated subcellular localization of the NIR fluorophores in cultured ID8 ovarian cancer cells. PH03 and PH08 were incubated with ID8 cells for 30 min followed by double staining with commercially available MitoTracker or LysoTracker Green and imaged under the house-built NIR fluorescence microscope. […]

On to `CCN1/C(=C/C=C2\CCCC(/C=C/C3=[N+](CC)c4ccccc4C3(C)C)=C2c2ccccc2)C(C)(C)c2ccccc21` [PH03, 1-Ethyl-2-((E)-2-((E)-6-(2-((E)-1-ethyl-3,3-dimethylindolin-2-ylidene)ethylidene)-3,4,5,6-tetrahydro-[1,1′-biphenyl]-2-yl)vinyl)-3,3-dimethyl-3H-indol-1-ium iodide], for which, in data set [1], the “optical response to pH” value is “little to no change in response to pH”, the “Abs λMax” value was 765 nm, the “Em λMax” value turned out to be 785 nm and the “QY (quantum yield)” value is 21.7%. In data set [1], the “ε (extinction coefficient)” value is recorded as 364,800 M^−1cm^−1. In addition, in the data set with ID8 cells, the “overlap of fluorescence signal with LysoTracker (lysosome)” value was 34.93% and the “overlap of fluorescence signal with MitoTracker (mitochondria)” value turned out to be 91.47%.

As to `CCN1/C(=C/C=C2\CCCC(/C=C/C3=[N+](CC)c4ccccc4C3(C)C)=C2N2CCNCC2)C(C)(C)c2ccccc21` [PH08], in data set [1], the “optical response to pH” value is “increases its fluorescence in mildly acidic conditions between pH 7.0 and 4.0”; the “Abs λMax” value was 710 nm; the “Em λMax” value came to 794 nm; the “QY (quantum yield)” value amounted to 16.0%. For the same compound, in data set [1], the “ε (extinction coefficient)” value is 43,800 M^−1cm^−1. In data set [1] (neutral pH (7.4)), the “absorbance wavelength before red-shift” value is recorded as 710 nm. Besides, the “molecular absorbance ε at 760 nm” value in data set [1] (neutral pH condition (pH=7.4)) is given as 92,600 M^−1 cm^−1. The “absorbance wavelength after red-shift” value in data set [1] (pH 4.0) is 765 nm. For the same compound, the “molecular absorbance ε at 760 nm” value in data set [1] (pH decreases to 4.0) is given as 134,500 M^−1 cm^−1. In the data set with ID8 cells, the “overlap of fluorescence signal with LysoTracker (lysosome)” value was 71.83% and the “overlap of fluorescence signal with MitoTracker (mitochondria)” value was found to be 83.05%.
